Assay results from patent publication US8029774B2, “Wound healing polymeric networks” (University of Pittsburgh, priority 2005, dated 2011).

Experiments:
[1] = system: human fibroblasts
[2] = system: human dermal fibroblasts; experiment: Cell motility, in vitro wound healing assay; settings: for movement of fibroblasts: in vitro wound healing assay, compared to no gel
[3] = system: human keratinocytes (HaCaT cells); experiment: Cell motility, in vitro wound healing assay; settings: compared to no gel

Structure (SMILES)	movement of fibroblasts [2]	movement of keratinocytes [3]	other results
O=[N+]([O-])[O-].[Ag+] [silver nitrate]	–	–	dead cells ([1]; human fibroblasts, 3 μg/ml of silver nitrate in medium, or polymer cured with 3 μg/ml silver): 10%
COC(=O)C(CCCCN=C=O)N=C=O (centres unmarked) [LDI, Lysine diisocyanate methyl ester]	limited cell movement	limited cell movement	–
OC[C@H]1O[C@@H](O[C@H]2[C@H](O)[C@@H](O)C(O)O[C@@H]2CO)[C@H](O)[C@@H](O)[C@H]1O (some centres unmarked) [lactose]	limited cell movement	limited cell movement	–
[Ag] [silver]	–	–	concentrations of silver preferred for cell proliferation [1]: lower than 15 μg/ml; fibroblasts proliferation [1]: greatly inhibited; impact on cell migration or proliferation ([2]; silver per se): no adverse impact
